Patent publication EP4178959B1, “NITROGEN HETEROCYCLIC CYTOKININ DERIVATIVES, COMPOSITIONS CONTAINING THESE DERIVATIVES AND USE THEREOF” (Univerzita Palackého v Olomouci, priority 2020, dated 2022)

Tests used:
Arabidopsis thaliana [1] = experiment: Effect on the root proliferation of Arabidopsis thaliana; assay type: in vivo, Arabidopsis thaliana (ecotype Columbia); details: for Concentration with highest activity: number of lateral roots; for Activity (%) [10^-8 mol.l^-1 Kin = 100%]: number of lateral roots (% of control), at concentration with highest activity
Procedure: Arabidopsis thaliana seeds (ecotype Columbia) were sterilized with 70% ethanol and 0.1% Triton X-100 and then washed with 70% ethanol containing 0.01% Triton X-100. Then the seeds were transferred to vertical square petri dishes (11 seeds per dish) on a solid medium consisting of MS (2.15 g/l), MES (0.5 g/l), sucrose (1 g/l), agar (11 g/l), buffered to pH 5.8, and various concentrations of tested compounds. The compounds were dissolved in DMSO, thus 0.05% DMSO was used as a control solution. After incubation for 3 days in darkness at 4°C, the seeds were germinated and grown in an environmental chamber (fluorescence light intensity 150 µE m^-2 s^-1, humidity 55%, 16 h day/8 h night, 22°C). […] The number of lateral roots was scored under a stereomicroscope. […] In addition, compounds with tetrahydropyranyl protection at N9 slightly increase the number of emerged lateral roots (Fig 3C). […] Table 6: […]

[2] = tested on: mouse immortalized bone marrow macrophages B10A.4; experiment: Calcein AM cytotoxicity assay, B10A.4 cells; details: read-out: Cytotoxicity IC50, B10A.4, first column headed B10A.4, 72 hours
Procedure: (§1) All compound concentrations were examined in duplicates. […] Zero cytotoxicity is a basic prerequisite for the use of these substances in cosmetical applications. To assess the antitumor activity, the toxicity of new derivatives on panels containing cell lines of different histogenic and species origin was tested (Table 5). […] The compounds listed in Table 5 can be divided into 2 groups.
(§2) The first group contains "classical cytokinins" represented by 6-substituted purines (their effects are already known). The second group includes novel 2-fluoro-N6-substituted-9-(2-oxacycloalkyl)-9H-purine-6-amine derivatives. […] Low cytotoxicity (high IC50 value) of the compounds is the basic prerequisite for cosmetic and medical applications. […] Table 5: Cytotoxicity of novel compounds for different normal cell lines tested / IC50 (µmol/L)

[3] = tested on: BJ (human foreskin fibroblasts); experiment: Calcein AM cytotoxicity assay, BJ cells; details: read-out: Cytotoxicity IC50, BJ; Calcein AM, 72 hours
Procedure: as §1, §2

excised wheat leaf tips = experiment: Senescence inhibition on winter wheat leaf segments (chlorophyll retention); set-up: species or system Triticum aestivum cv. Hereward; details: for Concentration with highest activity: retention of chlorophyll; for Activity (%) [10^-4mol.l^-1 KTHP = 100%] / Emax: retention of chlorophyll in excised wheat leaf tips, 96 h in the dark, at concentration with highest activity; for Emax: Triticum aestivum, foliar, read-out: Activity (%) [10^-4mol.l^-1 KTHP = 100%]
Procedure: Seeds of winter wheat, Triticum aestivum cv. Hereward, were washed under running water for 24 hours and then sown on vermiculite soaked with the Knop's solution. They were placed in the grow chamber at 25 °C with a 16/8 h light period at 50 μmol.m^-2.s^-1. After 7 days, the first leaf was fully developed and the second leaf had started to grow. A tip section of the first leaf, approximately 35 mm long, was removed from 5 seedlings and trimmed slightly to a combined weight of 100 mg. The basal ends of the five leaf tips were placed in the wells of a microtiter polystyrene plate containing 150 μl of the solution of the tested compound each. The entire plate was inserted into a plastic box lined with paper tissues soaked with distilled water to prevent leaf sections from drying out. […] The absorbance of the extract was recorded at 665 nm. In addition, chlorophyll extracts from fresh leaves and leaf tips incubated in deionised water were measured. From the obtained data, the concetration with the highest activity was selected for each compound tested. Relative activity of the compound at this concentration was calculated (Table 7). […] The values shown are means of five replicates and the whole experiment was repeated twice. The compounds to be tested were dissolved in dimethylsulfoxide (DMSO) and the solution brought up to 10^-3 M with distilled water. […] The compounds listed in Table 7 can be divided into 2 groups. The first group contains "classical 6,9-disubstituted purines (KTHP as a control)" known in prior art. […] Table 9: […]

Zea mays seedlings = experiment: Effect on development of Zea mays seedlings (hydroponic); assay type: in vivo, Zea mays cv. CELLUX; details: for Root dry mass (%) [4 x 10^-8 mol.l^-1 Kin = 100%] / Shoot dry mass (%) [10^-6 mol.l^-1 Kin = 100%]: at concentration with highest activity
Procedure: Maize seeds (Zea mays cv. CELLUX) were imbibed in tap water and germinated on a wetted filter paper. After 3 days, the germinated seedlings were transferred to aerated hydroponic tanks filled with Hoagland's nutrient solution. The plants were grown in an environmental chamber with 16 h light period (250 μE m^-2 s^-1) at 27°C and 8 h dark period at 20°C. Tested compounds diluted in DMSO were added to nutrient solution immediately when seedlings were nested in the tanks or after two additional days of cultivation. Control plants were grown in parallel with addition of corresponding amount of DMSO (up to 0.01%). Root and leaf tissues of ten plants were harvested at different time points after the application of the compounds, immediately frozen in liquid nitrogen and used for cytokinin content and transcript level analysis. Length of primary root and the first leaf were determined with ruler on sets of twelve plants, each cultivated in the independent tank (for every cytokinin application repeated ten times). Dry mass of root system and the aerial part was determined after cutting off the kernel and desiccation in dryer for two days at 60°C. […] Fig. 4) and up to 1 micromolar concentration when more seedlings were in the solution (approx. 50 seedlings per 1 liter; Fig. 5). […] Table 7: […]

Mouse fibroblasts NIH3T3 = experiment: Calcein AM cytotoxicity assay, NIH3T3 cells; details: read-out: Cytotoxicity IC50, NIH-3T3; Calcein AM, 72 hours
Procedure: as §1, §2

[4] = Calcein AM cytotoxicity assay, B10A.4 cells; details: mouse; for CC50 at 72 h: b10a.4 macrophages
Procedure: as §1, §2

[5] = Calcein AM cytotoxicity assay, BJ cells; details: human
Procedure: as §1, §2

[6] = Calcein AM cytotoxicity assay, NIH3T3 cells; details: mouse
Procedure: as §1, §2

Arabidopsis thaliana [7] = experiment: Arabidopsis root growth inhibition test; assay type: in vivo, Arabidopsis thaliana (ecotype Columbia); details: for root growth inhibition (in words): compared to WT, 7-d-old seedlings; for Primary root length 7-d, WT = 100%: 7-d-old plants
Procedure: Arabidopsis thaliana seeds (ecotype Columbia) were sterilized with 70% ethanol and 0.1% Triton X-100 and then washed 4 times with sterile water. The seeds were transferred to Petri dishes on a solid medium consisting of MS (2.2 g l^-1), sucrose (10 g l^-1), agar (8 g l^-1), and supplemented with cytokinins or DMSO control (0.1% DMSO). After incubation for 3 days in darkness at 4°C, the seeds were germinated and grown horizontally in an environmental chamber at 22/20 °C under an 8 h light (120 µmol photons m^-2 s^-1)/16 h dark cycle for 4 days. 7-d-old seedling were used for measurements of the primary root length. At least 35 plants were used for each treatment and each treatment was repeated in at least 5 individual Petri dishes. The length of the primary root was evaluated using Scion Image software (Scion Corporation, Frederick, MD, USA). All measured parameters were statistically evaluated between untreated and treated plants according to Student's unpaired t-test. […] Tab. Inhibition of the primary root growth in 7-d-old Arabidopsis plants. 100% = WT plants, DMSO treated.

[8] = tested on: sweet peppers, cucumbers and tomatoes; experiment: Field trials with vegetables, overall; assay type: in vivo; details: 10 - 100 nM
Procedure: Besides, plants were treated with a commercial fertilizer (type Kristalon) with optimal ratio of N,P,K and micronutrients. Dosage of 2-fluoro-6-[(3-methoxylbenzyl)amino]-9-(tetrahydro-2H-pyran-2-yl)-9H-purine was in the range between 10 - 100 nM, but usually 50 or 100 nM from re-planting to the end of vegetation once a week 500 ml to each plant (Table 10). The application of the compound was performed 1-3 times per week (according to the cultivation system - field or hydroponic). Stock solution was prepared in the concentration range 1-5 µM, then dosing into hydroponic system, watering with fertilizer, or in concentration […] in final fertilizer for use in soil conditions. Number of replicates was 10 / 12 plants from each variant (including control).
In case of cucumbers, fruit weight harvested per plant varied from 99,6 / 110,0 %, number of fruits were 102,3 / 106,8 % compared to control. Fruit weight from 1 plant varied from 100,0 to 124,7 % and number of fruits varied from 92,9 to 143,2 %, compared to control, after application of the tested compound to sweet peppers. In most trials, the size of fruits increased after the application of the tested compound.

[9] = Cytotoxicity IC50, B10A.4, first column headed B10A.4
[10] = tested concentration 0.04 µmol.l^-1
[11] = tested concentration 1 µmol.l^-1
[12] = tested concentration 25 µmol.l^-1

SMILES	Concentration with highest activity (Arabidopsis thaliana [1])	Activity (%) [10^-8 mol.l^-1 Kin = 100%] (Arabidopsis thaliana [1])	CC50 [2]	CC50 [3]	Concentration with highest activity (excised wheat leaf tips)	Activity (%) [10^-4mol.l^-1 KTHP = 100%] (excised wheat leaf tips)	Root dry mass (%) [4 x 10^-8 mol.l^-1 Kin = 100%] (Zea mays seedlings)	Shoot dry mass (%) [10^-6 mol.l^-1 Kin = 100%] (Zea mays seedlings)	Concentration with highest activity (Zea mays seedlings; root dry mass)	Concentration with highest activity (Zea mays seedlings; shoot dry mass)	CC50 (Mouse fibroblasts NIH3T3)	IC50 at 72 h [4, 9]	IC50 at 72 h [5]	Emax (excised wheat leaf tips)	IC50 at 72 h [6]	root growth inhibition (in words) (Arabidopsis thaliana [7])	Primary root length 7-d, WT = 100% (Arabidopsis thaliana [7]; [10])	Primary root length 7-d, WT = 100% (Arabidopsis thaliana [7]; [11])	Primary root length 7-d, WT = 100% (Arabidopsis thaliana [7]; [12])	further results
C/C(=C\CO)CNc1nc(F)nc2c1ncn2C1CCCO1 (centres unmarked) [Compound 6]	10^-5 mol.l^-1	48.5 (± 6) %	> 167 µM	> 167 µM	10^-4 mol.l^-1	138.2 (± 17) %	167.2 (± 14) %	121.2 (± 6) %	10^-7 mol.1^-1	10^-6 mol.1^-1	> 167 µM	–	–	–	–	–	–	–	–	–
Oc1cccc(CNc2nc(F)nc3c2ncn3C2CCCO2)c1O (centres unmarked) [Compound 29]	–	–	> 167 µM	> 167 µM	10^-4 mol.l^-1	15 (±5) %	–	–	–	–	> 167 µM	–	–	–	–	–	–	–	–	–
Oc1cccc(CNc2nc(F)nc3c2ncn3C2CCCCO2)c1 (centres unmarked) [Compound 65, 2-Fluoro-6-[(3-hydroxybenzyl)amino]-9-(tetrahydro-2H-pyran-2-yl)-9H-purine]	10^-5 mol.l^-1	32.6 (± 6) %	–	–	–	–	187.3 (± 18) %	121.6 (± 7) %	10^-7 mol.1^-1	10^-6 mol.1^-1	–	> 167 µM	> 167 µM	128%	> 167 µM	did not caused the inhibition of root	102.9 (±11.0) %	40.6 (±2.1) %	31.3 (±1.8) %	–
COc1cccc(CNc2nc(F)nc3c2ncn3C2CCCCO2)c1 (centres unmarked) [Compound 67, 2-Fluoro-6-[(3-methoxybenzyl)amino]-9-(tetrahydro-2H-pyran-2-yl)-9H-purine]	10^-5 mol.l^-1	–	–	–	–	–	261.2 (± 20) %	127.6 (± 9) %	10^-7 mol.1^-1	10^-6 mol.1^-1	–	> 167 µM	> 167 µM	195%	> 167 µM	did not cause significant root inhibition	96.9 (±2.4) %	50.3 (±1.1) %	34.9 (±2.1) %	effect on fertility term elongation of vegetables, number of fruits, protection against abiotic stress (in words) [8]: positive effect; effect on elongation of primary root (in words) (Arabidopsis thaliana [1]; MS media, range of concentration 0.04 to 5 µM): does not have negative effect on elongation of primary root; effect on cell division and organ growth (in words) (Zea mays seedlings; root system and aerial part of seedlings): Positive effect
Oc1cccc(CNc2ncnc3[nH]cnc23)c1 [meta-topolin, reference compound]	–	–	–	–	–	–	–	–	–	–	–	–	–	–	–	–	67.1 (±7.2) %	33.9 (±2.0) %	19.3 (±2.3) %	CC50 at 72 h [4, 9]: > 167 µM; CC50 at 72 h ([4]; Cytotoxicity IC50, B10A.4, second column headed B10A.4): 178 µM; CC50 at 72 h ([5]; bj fibroblasts): 166 µM; CC50 at 72 h ([6]; nih3t3 cells): 167 µM
